Assay results reported in US20190300892A1, “CONSTRUCTS AND METHODS FOR BIOSYNTHESIS OF GALANTHAMINE” (priority 2014, published 2019).
Entries after “also recorded” stand apart in the source; their conditions may differ. Where two headings read alike, the source gives them in different places.

Experiments:
[1] = target: T1, NpN4OMT1 (Narcissus aff. pseudonarcissus MK-2014, UniProt A0A077EWA5); format: biochemical; settings: for enzymatic activity upon addition of divalent cation: cation dependence test, 5 min assays, 4 μM norbelladine, 37° C.
T1 construct: made in house; host or cells: E. coli BL21(DE3) Codon Plus RIL
Protocol: Enzyme assays for initial testing of NpN4OMT1 contained 10 μg of pure protein with 200 μM AdoMet, 100 μM norbelladine and 30 mM potassium phosphate buffer pH 8.0 in 100 μl. The assays were incubated for 2 hr at 30° C. The vector control was an E. coli extract purified with TALON in the same way as the methyltransferase protein. For the vector control assay, an equal volume of the pure vector control extract was substituted for the NpN40MT1 protein in the enzyme assay. These assays were quenched by adjusting the pH to 9.5 with two volumes of sodium bicarbonate and extracted with two volumes ethyl acetate two times. After drying, the extracts were re-suspended in the initial mobile phase of the HPLC program. The HPLC separation of the assays was performed using a phenomenex Luna C8(2) 5 m 250×4.6 mm column with solvent A (0.1% formic acid in H2O) and solvent B (acetonitrile). The program started with 10% solvent B and a flow rate of 0.8 ml/min, a linear gradient began at 2 min to 30% at 15 min, 90% at 15.1 min, 90% at 20 min, 10% at 21 min and 10% at 28 min. Injection volume was 20 μl using a Waters auto-sampler. Waters UV detector was set to 277 nm.
After optimization of the NpN4OMT assay, the buffer was changed to […] glycine at pH 8.8, with 5 mM of MgCl2 added and the temperature was increased to 37° C. in 100 μl total reaction volume. When performing kinetic assays, the E. coli enzyme Pfs was added to break down SAH and prevent product inhibition. Papaverine was used as an internal standard.
With the same solvent system as for screening enzyme assays, the HPLC program started with 20% B and a flow rate of 0.8 ml/min, a linear gradient began at 2 min to 25.4% B at 7 min, 90% at 7.2 min, 90% at 9 min, 20% at 9.1 min and 20% at 14 min. A 4000 QTRAP mass spectrometer coupled to the same LC column and time program as used in HPLC was used to collect all compound mass and fragmentation data.
For NpN4OMT norbelladine kinetics an MRM program in positive ion mode was used to monitor the following fragments 260.00 [M+H]^+/138.00 [M−C8H9O]^+• m/z, 260.00 [M+H]^+/121.00 [M−C7H8NO2]^+• m/z, 274.00 [M+H]^+/137.00 [M+H—C8H9O2]^+ m/z, 274.00 [M+H]^+/122.00 [M+H—C8H10NO2]^+ m/z. The fragments with 260.00 [M+H]^+ m/z and 274.00 [M+H]^+ m/z molecular ions were replaced when looking at N-methylnorbelladine for 274.00 [M+H]^+/152.10 [M−C8H9O]^+• m/z, 274.00 [M+H]^+/121.00 [M−C9H12NO2]^+• m/z, 288.00 [M+H]^+/150.10 [M−C8H9O2]^+• m/z and 288.20 [M+H]^+/137.00 [M−C9H12NO]^+• m/z. Papaverine internal standard was monitored with the following fragments 340.40[M+H]^+/324.20 [M−CH3]^+• m/z and 340.40 [M+H]^+/202.10 [M−C8H9O2]^+• m/z. When conducting dopamine kinetics, galanthamine was used as the internal standard and samples were not ethyl acetate extracted prior to LC/MS/MS analysis. To remove protein, two volumes of acetonitrile were added followed by 1 hr at −20° C. and 10 min centrifugation at 16,100×g, 4° C. The supernatant was dried under vacuum and re-suspended in the starting mobile phase before analysis. The HPLC time program was changed to start at 5% solvent B with solution going to waste until 3.9 min, at 5 min start linear gradient to 25% B at […], 90% B at 9.5 min, 90% B at 11 min, 5% B at 11.1 min and 5% B at 16 min. Ions monitored in the MRM were 168.00 [M+H]^+/151.00 [M+H-OH]^+ m/z and 168.00 [M+H]^+/119.00 [M−OH—OCH3]^+• m/z. AdoMet steady state kinetic parameters were determined with norbelladine as the saturated substrate. Product was quantitated using HPLC with the 28 min program used for screening enzyme assays. Product for assays on the additional NpN4OMT variants was detected with this same 28 min program on HPLC.
When conducting kinetic experiments the K, was at least five fold higher than the minimum concentration of substrate and fivefold lower than the maximum concentration of substrate tested.

[2] = target: T2, CYP96T1 (Narcissus aff. pseudonarcissus MK-2014, UniProt A0A140IL90); format: biochemical; settings: for product formation as CYP96T1 substrate: LC-MS/MS
T2 construct: made in house; host or cells: Spodoptera frugiperda Sf9 cells (Baculogold baculovirus, pVL1392)
T2 sequence (A0A140IL90 1-513): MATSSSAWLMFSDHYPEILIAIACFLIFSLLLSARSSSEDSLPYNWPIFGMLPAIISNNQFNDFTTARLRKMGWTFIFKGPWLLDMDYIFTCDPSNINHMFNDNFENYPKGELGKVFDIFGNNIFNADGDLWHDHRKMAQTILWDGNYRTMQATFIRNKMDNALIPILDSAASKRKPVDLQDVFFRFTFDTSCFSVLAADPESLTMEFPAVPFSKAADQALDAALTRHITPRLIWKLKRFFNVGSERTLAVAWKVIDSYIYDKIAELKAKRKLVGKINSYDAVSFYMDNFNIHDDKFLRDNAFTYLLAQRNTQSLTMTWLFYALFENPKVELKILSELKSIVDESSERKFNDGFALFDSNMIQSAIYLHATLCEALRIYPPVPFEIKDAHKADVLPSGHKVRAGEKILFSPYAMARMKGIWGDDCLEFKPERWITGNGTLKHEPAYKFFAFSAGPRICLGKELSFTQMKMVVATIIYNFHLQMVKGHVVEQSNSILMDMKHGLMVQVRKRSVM
Protocol: Recombinant protein production of NpN4OMT and norbelladine synthase/reductase in 1 L of E. coli and purification with TALON resin followed standard methods. No proteases were added to the protein extract, and desalting was performed with PD-10 columns from GE Healthcare. Protein quantity was determined according to Bradford; purity was monitored by SDS-PAGE. The E. coli cell line containing the hexahistidine-tagged methylthioadenosine/S-adenosylhomocysteine nucleosidase (Pfs) construct from Choi-Rhee and Cronan's work was used to purify Pfs protein. CYP96T1 was co-expressed with cytochrome P450 reductase in Spodoptera frugiperda Sf9 cells using Baculogold baculoviurus (BD Biosciences). Whole cell lysates were used in CYP96T1 enzyme assays.
CYP96T1 assays contained 30 mM KPO4 pH 8.0, 1.25 mM NADPH, 10 μM substrate and 70 μl of virus infected Sf9 cell suspension in 200 μl total volume. The assays were incubated for 2-4 hr at 30° C. 4′-O-metylnorbelladine was used as an initial test compound. Substrate specificity tests were done on 4′-O-methyl-N-methylnorbelladine, norbelladine, N-methylnorbelladine, 3′-O-methylnorbelladine, 3′,4′-O-dimethylnorbelladine, haemanthamine, (S)-coclaurine, (R)-coclaurine and mixed (10aR,4bR)- and (10aS,4bS)-noroxomaritidine. Assays derivatized with sodium borohydride were incubated 2 hr at 30° C. followed by addition of 0.5 volumes 0.5 M sodium borohydride in 0.5 M sodium hydroxide and incubated 30 min at RT. The CYP96T1 assay resolved on a Chiral-CBH column and assays measured with HPLC used fresh CYP96T1 and CPR expressing SF9 cell protein prepared using re-amplified virus. Enzyme assays on all substrates were extracted as previously described and run on a QTRAP 4000 coupled to a IL-20AC XR prominence liquid auto sampler, 20AD XR prominence liquid chromatograph and Phenomenex Luna 5 μm C8(2) 250×4.60 mm column. HPLC gradient and MS settings were as previously described for NpN4OMT. Assay specific MS/MS parameters are presented in
Table 4. Multiple Reaction Monitoring (MRM) parameters for relative quantification of (10aR,4bR)- and (10aS,4bS)-noroxomaritidine, N-demethylnarwedine, narwedine and the two unknown compounds are presented in Table5. For analysis of product chirality, a Chrom Tech, Inc. Chiral-CBH 100×4.0 mm, 5 μM column was used with a 30 min isocratic flow of 2.5% HPLC grade ethanol and 10 mM ammonium acetate with pH adjusted to 7.0 with ammonium hydroxide.

T1 sequence (A0A077EWA5 whole entry): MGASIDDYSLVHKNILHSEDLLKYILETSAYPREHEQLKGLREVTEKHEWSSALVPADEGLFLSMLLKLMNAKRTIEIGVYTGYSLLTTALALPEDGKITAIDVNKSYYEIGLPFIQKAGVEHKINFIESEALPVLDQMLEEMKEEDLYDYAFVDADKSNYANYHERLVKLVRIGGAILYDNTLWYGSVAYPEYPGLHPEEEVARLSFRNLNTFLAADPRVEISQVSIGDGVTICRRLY

O=Cc1ccc(O)c(O)c1 [3,4-dihydroxybenzaldehyde]
product formation / activity as NpN4OMT substrate ([1]; text statement): Products were not detected; also recorded: lack of enzymatic activity

COc1ccc(CNCCc2ccc(O)cc2)cc1OC [3′,4′-O-Dimethylnorbelladine]
product formation as CYP96T1 substrate [2]: products were not detected

COc1cc(CNCCc2ccc(O)cc2)ccc1O [3′-O-Methylnorbelladine]
product formation as CYP96T1 substrate [2]: products were not detected

COc1ccc(CN(C)CCc2ccc(O)cc2)cc1O [4′-O-Methyl-N-methylnorbelladine]
product formation as CYP96T1 substrate [2]: One product is enzymatically produced

COc1ccc(CNCCc2ccc(O)cc2)cc1O [4′-O-Methylnorbelladine]
product formation as CYP96T1 substrate [2]: C—C phenol coupled | kcat ([2]; substrate of CYP96T1): 0.25 ± 0.0338 s⁻¹ | kcat ([2]; substrate of CYP96T1, production of noroxomaritidine): 15.0 ± 2.03 L/min | Km ([2]; substrate of CYP96T1, production of (10aR,4bR)- and (10aS,4bS)-noroxomaritidine, Michaelis-Menten with substrate inhibition): 1.13 ± 0.5 µM

COc1cc2c(cc1O)[C@@H](Cc1ccc(O)cc1)NCC2 [(R)-Coclaurine]
product formation as CYP96T1 substrate [2]: yield products with a mass −2 m/z

COc1cc2c(cc1O)[C@H](Cc1ccc(O)cc1)NCC2 [(S)-Coclaurine]
product formation as CYP96T1 substrate [2]: yield products with a mass −2 m/z

CN(CCc1ccc(O)cc1)Cc1ccc(O)c(O)c1 [N-methylnorbelladine]
product formation as CYP96T1 substrate [2]: Product formation is not observed

O=C(O)/C=C/c1ccc(O)c(O)c1 [caffeic acid]
product formation / activity as NpN4OMT substrate [1]: Products were not detected

[Co+2] [cobalt]
enzymatic activity upon addition of divalent cation [1]: enzymatic activity improved

NCCc1ccc(O)c(O)c1 [dopamine]
product formation / activity as NpN4OMT substrate [1]: served as a substrate, but with less efficiency | kcat ([1]; substrate of NpN4OMT1, ± = Standard error, ND = Not detected): 0.06 ± 0.0025 s⁻¹ | Km ([1]; substrate of NpN4OMT1, ± = Standard error, ND = Not detected, AdoMet determined with norbelladine as the saturated substrate): 7.3 ± 2.7 µM

[Mg+2] [magnesium]
enzymatic activity upon addition of divalent cation [1]: increased fourfold more

Oc1ccc(CCNCc2ccc(O)c(O)c2)cc1 [norbelladine]
product formation as CYP96T1 substrate [2]: Product formation is not observed

NCCc1ccc(O)cc1 [tyramine]
product formation / activity as NpN4OMT substrate ([1]; text statement): Products were not detected | product formation / activity as NpN4OMT substrate ([1]; text statement, listed as Tyramine): not methylated

COc1cc(C=O)ccc1O [vanillin]
product formation / activity as NpN4OMT substrate ([1]; text statement): Products were not detected
